From patent publication US10093630B2, “Pyrazole compounds and methods of making and using same” (ABIDE THERAPEUTICS, INC., priority 2014, dated 2018)
Like-named read-outs stand apart in the source and are kept apart here.

Experiments:
Test in all cases: In vitro competitive activity-based protein profiling (gel-based, FP-Rh or HT-01 probe)
Type in all cases: biochemical
[1] = molecular target: T1, FAAH (Mus musculus, UniProt O08914); settings: for inhibition at 1 µM: 1 μM inhibitor, read-out: % Inhibition at 1 μM, B = FAAH; for inhibition at 10 µM: 10 μM inhibitor, read-out: % Inhibition at 10 μM, B = FAAH; for IC50: mouse brain membrane fraction or cell lysates, 30 min preincubation at 37° C., read-out: Mouse (IC50 value, nM) FAAH
T1 construct: Proteomes (mouse brain membrane fraction or cell lysates); from tissue; host or cells: mouse brain membrane fraction (or cell lysates, not specified)
T1 sequence (O08914 1-579): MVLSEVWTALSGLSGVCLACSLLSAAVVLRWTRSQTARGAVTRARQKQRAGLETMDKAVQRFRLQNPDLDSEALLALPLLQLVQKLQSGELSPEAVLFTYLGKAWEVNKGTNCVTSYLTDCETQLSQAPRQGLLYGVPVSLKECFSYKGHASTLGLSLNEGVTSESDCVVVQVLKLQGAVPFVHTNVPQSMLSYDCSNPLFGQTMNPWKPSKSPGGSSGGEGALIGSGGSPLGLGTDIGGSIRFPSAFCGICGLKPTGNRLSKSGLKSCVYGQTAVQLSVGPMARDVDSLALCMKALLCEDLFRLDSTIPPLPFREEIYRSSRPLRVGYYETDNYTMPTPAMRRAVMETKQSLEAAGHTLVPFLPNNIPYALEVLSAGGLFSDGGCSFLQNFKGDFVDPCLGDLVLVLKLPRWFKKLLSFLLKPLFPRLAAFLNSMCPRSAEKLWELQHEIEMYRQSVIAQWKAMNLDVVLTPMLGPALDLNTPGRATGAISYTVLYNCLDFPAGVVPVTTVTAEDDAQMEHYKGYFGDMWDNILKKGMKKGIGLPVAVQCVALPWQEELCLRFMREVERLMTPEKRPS
How it was run: (§1)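 Read-out: fluorescent band intensity on SDS-PAGE gels, reporting remaining serine hydrolase activity. Before that, proteome (mouse brain membranes or cell lysates, 1.0 mg/mL) saw a range of inhibitor concentrations for 30 min at 37° C, followed by 30 min probe labelling (FP-Rh or HT-01).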

[2] = molecular target: T2, ABHD6 (Mus musculus, UniProt Q8R2Y0); settings: for inhibition at 1 µM: 1 μM inhibitor, read-out: % Inhibition at 1 μM, C = ABHD6; for inhibition at 10 µM: 10 μM inhibitor, read-out: % Inhibition at 10 μM, C = ABHD6; for IC50: mouse brain membrane fraction or cell lysates, 30 min preincubation at 37° C., read-out: Mouse (IC50 value, nM) ABHD6
T2 construct: Proteomes (mouse brain membrane fraction or cell lysates); from tissue; host or cells: mouse brain membrane fraction (or cell lysates, not specified)
T2 sequence (Q8R2Y0 1-336): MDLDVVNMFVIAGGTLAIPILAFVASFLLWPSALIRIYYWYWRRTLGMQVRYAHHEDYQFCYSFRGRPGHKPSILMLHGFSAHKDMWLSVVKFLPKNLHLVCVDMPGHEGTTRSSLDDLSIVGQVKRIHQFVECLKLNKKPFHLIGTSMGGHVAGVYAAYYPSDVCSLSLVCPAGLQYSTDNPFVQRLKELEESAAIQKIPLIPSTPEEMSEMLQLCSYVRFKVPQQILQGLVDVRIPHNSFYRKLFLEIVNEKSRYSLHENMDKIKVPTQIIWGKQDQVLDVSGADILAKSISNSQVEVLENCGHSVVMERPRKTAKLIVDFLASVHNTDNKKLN
How it was run: as §1

[3] = molecular target: T3, PLA2G7 (Mus musculus, UniProt Q60963); settings: for inhibition at 1 µM: 1 μM inhibitor, read-out: % Inhibition at 1 μM, D = PLA2G7; for inhibition at 10 µM: 10 μM inhibitor, read-out: % Inhibition at 10 μM, D = PLA2G7; for IC50: mouse brain membrane fraction or cell lysates, 30 min preincubation at 37° C.
T3 construct: Proteomes (mouse brain membrane fraction or cell lysates); from tissue; host or cells: mouse brain membrane fraction (or cell lysates, not specified)
T3 sequence (Q60963 22-440): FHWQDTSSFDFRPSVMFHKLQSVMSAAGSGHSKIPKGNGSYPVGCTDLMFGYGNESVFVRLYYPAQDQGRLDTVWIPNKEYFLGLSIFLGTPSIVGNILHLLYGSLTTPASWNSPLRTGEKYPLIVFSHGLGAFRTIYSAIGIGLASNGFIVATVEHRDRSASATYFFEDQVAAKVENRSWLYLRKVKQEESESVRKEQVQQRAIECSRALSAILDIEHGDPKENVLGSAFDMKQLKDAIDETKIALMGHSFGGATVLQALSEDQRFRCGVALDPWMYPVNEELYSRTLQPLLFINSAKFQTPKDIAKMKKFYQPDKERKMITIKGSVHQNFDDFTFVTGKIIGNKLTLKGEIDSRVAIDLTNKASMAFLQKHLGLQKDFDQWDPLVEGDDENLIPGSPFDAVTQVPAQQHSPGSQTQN
How it was run: as §1

[4] = molecular target: T4, MAGL (Mus musculus, UniProt O35678); settings: for inhibition at 1 µM: 1 μM inhibitor; for inhibition at 10 µM: 10 μM inhibitor; for IC50: mouse brain membrane fraction or cell lysates, 30 min preincubation at 37° C., read-out: Mouse (IC50 value, nM) MAGL
T4 construct: Proteomes (mouse brain membrane fraction or cell lysates); from tissue; host or cells: mouse brain membrane fraction (or cell lysates, not specified)
T4 sequence (O35678 1-303): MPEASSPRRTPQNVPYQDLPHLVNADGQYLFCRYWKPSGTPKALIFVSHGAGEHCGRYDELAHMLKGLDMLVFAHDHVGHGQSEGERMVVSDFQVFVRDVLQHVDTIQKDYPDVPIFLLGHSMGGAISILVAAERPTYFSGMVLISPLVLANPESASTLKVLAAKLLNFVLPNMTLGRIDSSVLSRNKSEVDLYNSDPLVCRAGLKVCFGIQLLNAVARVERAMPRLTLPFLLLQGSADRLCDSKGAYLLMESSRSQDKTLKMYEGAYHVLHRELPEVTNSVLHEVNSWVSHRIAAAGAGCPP
How it was run: as §1

SMILES | inhibition at 1 µM ([1]; gel-based competitive ABPP) | inhibition at 10 µM ([1]; gel-based competitive ABPP) | inhibition at 1 µM ([2]; gel-based competitive ABPP) | inhibition at 10 µM ([2]; gel-based competitive ABPP) | inhibition at 1 µM ([3]; gel-based competitive ABPP) | inhibition at 10 µM ([3]; gel-based competitive ABPP) | inhibition at 1 µM ([4]; gel-based competitive ABPP) | inhibition at 10 µM ([4]; gel-based competitive ABPP) | IC50 [1] | IC50 [2] | IC50 [3] | IC50 [4] | inhibition at 1 µM [1] | inhibition at 10 µM [1] | inhibition at 1 µM [2] | inhibition at 10 µM [2] | inhibition at 1 µM [3] | inhibition at 10 µM [3] | inhibition at 1 µM [4] | inhibition at 10 µM [4]
O=C(N1CCN(Cc2ccc(-c3ccccc3)cc2)CC1)n1cccn1 [Example 22, (4-([1,1′-Biphenyl]-4-ylmethyl)piperazin-1-yl)(1H-pyrazol-1-yl)methanone] |  |  |  |  |  |  |  |  |  |  |  |  | < 25% | > 75% | < 25% | > 75% | < 25% | < 25% | > 75% | > 75%
Cc1cnn(C(=O)N2CCCN(Cc3ccccc3)CC2)c1 [Example 168, (4-Benzyl-1,4-diazepan-1-yl)(4-methyl-1H-pyrazol-1-yl)methanone] |  |  |  |  |  |  |  |  |  |  |  |  |  | < 25% |  | < 25% |  | < 25% |  | < 25%
O=C(c1cnn(C(=O)N2CCN(Cc3nccs3)CC2)c1)N1CCCC1 [Example 83, Pyrrolidin-1-yl(1-(4-(thiazol-2-ylmethyl)piperazine-1-carbonyl)-1H-pyrazol-4-yl)methanone] |  |  |  |  |  |  |  |  |  |  |  |  | < 25% | > 75% | < 25% | > 75% | < 25% | > 75% | < 25% | < 25%
O=C(c1cnn(C(=O)N2CCN(Cc3cncnc3)CC2)c1)N1CCCCC1 [Example 75, Piperidin-1-yl(1-(4-(pyrimidin-5-ylmethyl)piperazine-1-carbonyl)-1H-pyrazol-4-yl)methanone] |  |  |  |  |  |  |  |  |  |  |  |  | < 25% | < 25% | < 25% | > 75% | > 75% | > 75% | < 25% | < 25%
CC(=O)N1CCN(C(=O)n2cc(C)cn2)CC1 [Example 161, 1-(4-(4-Methyl-1H-pyrazole-1-carbonyl)piperazin-1-yl)ethanone] |  |  |  |  |  |  |  |  |  |  |  |  | < 25% | < 25% | < 25% | < 25% | < 25% | > 75% | < 25% | < 25%
O=C(N1CCN(Cc2ccncn2)CC1)n1cc(-c2ccccc2)cn1 [Example 62, (4-Phenyl-1H-pyrazol-1-yl)(4-(pyrimidin-4-ylmethyl)piperazin-1-yl)methanone] |  |  |  |  |  |  |  |  |  |  |  |  |  | > 75% | > 75% | > 75% | > 75% | > 75% |  | < 25%

Second part, the compound after the results:

inhibition at 1 µM ([1]; gel-based competitive ABPP) | inhibition at 10 µM ([1]; gel-based competitive ABPP) | inhibition at 1 µM ([2]; gel-based competitive ABPP) | inhibition at 10 µM ([2]; gel-based competitive ABPP) | inhibition at 1 µM ([3]; gel-based competitive ABPP) | inhibition at 10 µM ([3]; gel-based competitive ABPP) | inhibition at 1 µM ([4]; gel-based competitive ABPP) | inhibition at 10 µM ([4]; gel-based competitive ABPP) | IC50 [1] | IC50 [2] | IC50 [3] | IC50 [4] | inhibition at 1 µM [1] | inhibition at 10 µM [1] | inhibition at 1 µM [2] | inhibition at 10 µM [2] | inhibition at 1 µM [3] | inhibition at 10 µM [3] | inhibition at 1 µM [4] | inhibition at 10 µM [4] | SMILES
> 75% | > 75% | > 75% | > 75% | > 75% | > 75% | > 75% | > 75% |  |  |  |  |  |  |  |  |  |  |  |  | N#Cc1cnn(C(=O)N2CCN(Cc3ccc(C(=O)N4CCCCC4)cc3F)CC2)c1 [Example 284, 1-(4-(2-Fluoro-4-(piperidine-1-carbonyl)benzyl)piperazine-1-carbonyl)-1H-pyrazole-4-carbonitrile]
> 75% |  | > 75% |  | > 75% |  | > 75% |  | < 100 nM | < 100 nM | < 100 nM | < 100 nM |  |  |  |  |  |  |  |  | COc1cccc(CN2CCN(C(=O)n3cc(C(F)(F)F)cn3)CC2)c1 [Example 271, (4-(3-Methoxybenzyl)piperazin-1-yl)(4-(trifluoromethyl)-1H-pyrazol-1-yl)methanone]
 |  |  |  |  |  |  |  | < 100 nM | 100 to 1000 nM | < 100 nM | > 1000 nM | > 75% | > 75% | > 75% | > 75% | > 75% | > 75% | > 75% | > 75% | CN(Cc1cccc(-c2ccncc2)c1)C(=O)n1cc(-c2ccccc2)cn1 [Example 219, N-Methyl-4-phenyl-N-(3-(pyridin-4-yl)benzyl)-1H-pyrazole-1-carboxamide]
< 25% |  | < 25% |  | < 25% |  | < 25% |  |  |  |  |  |  |  |  |  |  |  |  |  | CCN(Cc1ccc(C)cc1)C(=O)n1cc(C)cn1 [Example 257, N-Ethyl-4-methyl-N-(4-methylbenzyl)-1H-pyrazole-1-carboxamide]
> 75% |  | < 25% |  | < 25% |  | > 75% |  | < 100 nM | > 1000 nM | > 1000 nM | 100 to 1000 nM |  |  |  |  |  |  |  |  | CCN(Cc1ccc(OC)cc1)C(=O)n1cc(C#N)cn1 [Example 258, 4-Cyano-N-ethyl-N-(4-methoxybenzyl)-1H-pyrazole-1-carboxamide]
> 75% |  | > 75% |  | < 25% |  | > 75% |  |  |  |  |  |  |  |  |  |  |  |  |  | N#Cc1cnn(C(=O)N2CCCN(Cc3cccc(OCc4ccccc4)c3)CC2)c1 [Example 300, 1-(4-(3-(Benzyloxy)benzyl)-1,4-diazepane-1-carbonyl)-1H-pyrazole-4-carbonitrile]
> 75% | > 75% | 25 to 75% | > 75% | < 25% | > 75% | 25 to 75% | > 75% | 100 to 1000 nM | > 1000 nM | > 1000 nM | > 1000 nM |  |  |  |  |  |  |  |  | N#Cc1cnn(C(=O)N2CCCCCC2)c1 [Example 292, 1-(Azepane-1-carbonyl)-1H-pyrazole-4-carbonitrile]
 |  |  |  |  |  |  |  | < 100 nM | > 1000 nM |  | > 1000 nM | > 75% | > 75% | < 25% | > 75% | < 25% | < 25% | < 25% | > 75% | CCN(Cc1ccc(C)cc1)C(=O)n1cc(Cl)cn1 [Example 133, 4-Chloro-N-ethyl-N-(4-methylbenzyl)-1H-pyrazole-1-carboxamide]
